# Reference: patent US20190142993A1, “ULTRA-THIN, HIGH STRENGTH, DRUG-LOADED SUTURES AND COATINGS THEREOF” (The Johns Hopkins University, priority 2016, published 2019)
# Test system: corneas of Sprague-Dawley rats
# Details: rat, in vivo
# Protocol: For assessment of in vivo biocompatibility, animals were cared for and experiments conducted in accordance with protocols approved by the Animal Care and Use Committee of the Johns Hopkins University. Protocols are also in accordance with the ARVO Statement for the Use of Animals in Ophthalmic and Vision Research. […] Prior to implantation, rats were intraperitoneally anesthetized with a solution of Ketamine:Xylazine (75:5 mg/kg, Sigma Aldrich) and a drop of 0.5% proparacaine hydrochloride ophthalmic solution (Bausch & Lomb Inc., Tampa, Fla.) was applied to the cornea. Following implantation, the rats were evaluated for signs of infection every day for seven days. The rats were then euthanized and eyes enucleated, fixed in formalin (Sigma Aldrich) for 24 h, embedded in paraffin, cross sectioned, and stained with hematoxylin and eosin for histological evaluation.
substance,measurement,value
nylon,tissue reaction (histological analysis),no obvious signs of neovascularization or inflammation
